From patent publication US10471046B2, “Method for treating, preventing, or reducing the risk of skin infection” (Melinta Subsidiary Corp., priority 2014, dated 2019)
In brackets after ≈: the same amount, converted by molar mass.

Tested on: S. aureus
Test: Minimum inhibitory concentrations (MICs) for S. aureus of exemplary compounds (Table 2)
Format: cell-based
Conditions: Staphylococcus aureus, minimum inhibitory concentrations for S. aureus; read-out: MICs
In short: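 MICs (μg/mL) against S. aureus come from microtiter-tray dilution susceptibility testing per NCCLS M7-A5, comparing growth with and without compound.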

| SMILES | MIC [µg/mL] |
| --- | --- |
| CC(=O)NC[C@H]1CN(c2ccc(-c3ccc(CNCc4ccon4)cc3)c(F)c2)C(=O)O1 [Compound 4183, N-[3-(2-Fluoro-4′-{[(isoxazol-3-ylmethyl)-amino]-methyl}-biphenyl-4-yl)-2-oxo-oxazolidin-5-(S)-ylmethyl]-acetamide] | 1 (≈ 2.28 µM) |
| CC(=O)NC[C@H]1CN(c2ccc(-c3ccc(CNc4nc[nH]c4C(N)=O)cc3)c(F)c2)C(=O)O1 [Compound 2055, 5-({4′-[5-(S)-(Acetylamino-methyl)-2-oxo-oxazolidin-3-yl]-2′-fluoro-biphenyl-4-ylmethyl}-amino)-3H-imidazole-4-carboxylic acid amide] | 4 (≈ 8.57 µM) |
| CC(=O)NC[C@H]1CN(c2ccc(-c3ccc(CN(C)C(=O)c4ccc5cc[nH]c5c4)cc3)c(F)c2)C(=O)O1 [Compound 4050, 1H-Indole-6-carboxylic acid {4′-[5-(S)-(acetylamino-methyl)-2-oxo-oxazolidin-3-yl]-2′-fluoro-biphenyl-4-ylmethyl}-methyl-amide] | 1 (≈ 1.94 µM) |
| CC(=O)NC[C@H]1CN(c2ccc(-c3ccc(Cn4nnnc4N)cc3)c(F)c2)C(=O)O1 [Compound 1025, N-{3-[4′-(5-Amino-tetrazol-1-ylmethyl)-2-fluoro-biphenyl-4-yl]-2-oxo-oxazolidin-5-(S)-ylmethyl}-acetamide] | 0.5 (≈ 1.18 µM) |
| CC(=O)NC[C@H]1CN(c2ccc(-c3ccc(CNCc4ccc(N(C)C)cc4)cc3)c(F)c2)C(=O)O1 [Compound 4062, N-(3-{4′-[(4-Dimethylamino-benzylamino)-methyl]-2-fluoro-biphenyl-4-yl}-2-oxo-oxazolidin-5-(S)-ylmethyl)-acetamide] | 2 (≈ 4.08 µM) |
| CC(=O)NC[C@H]1CN(c2ccc(-c3ccc(CNCc4ccoc4)cn3)c(F)c2)C(=O)O1 [Compound 4053, N-{3-[3-Fluoro-4-(5-{[(furan-3-ylmethyl)-amino]-methyl}-pyridin-2-yl)-phenyl]-2-oxo-oxazolidin-5-(S)-ylmethyl}-acetamide] | 4 (≈ 9.12 µM) |
| CC(=O)NC[C@H]1CN(c2ccc(-c3ccc(CS(=O)(=O)c4cnn[nH]4)cc3)c(F)c2)C(=O)O1 [Compound 2025, N-{3-[2-Fluoro-4′-(3H-[1,2,3]triazole-4-sulfonylmethyl)-biphenyl-4-yl]-2-oxo-oxazolidin-5-(S)-ylmethyl}-acetamide] | 8 (≈ 16.9 µM) |
| CC(=O)NC[C@H]1CN(c2ccc(-c3ccc(Cn4cnc5c(NCCF)ncnc54)cc3)c(F)c2)C(=O)O1 [Compound 1102, N-(3-{2-Fluoro-4′-[6-(2-fluoro-ethylamino)-purin-9-ylmethyl]-biphenyl-4-yl}-2-oxo-oxazolidin-5-(S)-ylmethyl)-acetamide] | 1 (≈ 1.92 µM) |
| CC(=O)NC[C@H]1CN(c2ccc(-c3ccc(CNC(=O)COc4ccc(Cl)cc4Cl)cc3)c(F)c2)C(=O)O1 [Compound 5014, N-{4′-[5-(S)-(Acetylamino-methyl)-2-oxo-oxazolidin-3-yl]-2′-fluoro-biphenyl-4-ylmethyl}-2-(2,4-dichloro-phenoxy)-acetamide] | 16 (≈ 28.6 µM) |
| CC(=O)NC[C@H]1CN(c2ccc(-c3ccc(Cn4cnc5c(NCCCO)ncnc54)cc3)c(F)c2)C(=O)O1 [Compound 1107, N-(3-{2-Fluoro-4′-[6-(3-hydroxy-propylamino)-purin-9-ylmethyl]-biphenyl-4-yl}-2-oxo-oxazolidin-5-(S)-ylmethyl)-acetamide] | 2 (≈ 3.75 µM) |
| CC(=O)NC[C@H]1CN(c2ccc(-c3ccc(CNC(=O)C4CNC4)cc3)c(F)c2)C(=O)O1 [Compound 4291, Azetidine-3-carboxylic acid {4′-[5-(S)-(acetylamino-methyl)-2-oxo-oxazolidin-3-yl]-2′-fluoro-biphenyl-4-ylmethyl}-amide] | 8 (≈ 18.2 µM) |
| CC(=O)NC[C@H]1CN(c2ccc(-c3ccc(CNCCSc4ccccn4)cc3)c(F)c2)C(=O)O1 [Compound 5004, N-[3-(2-Fluoro-4′-{[2-(pyridin-2-ylsulfanyl)-ethylamino]-methyl}-biphenyl-4-yl)-2-oxo-oxazolidin-5-(S)-ylmethyl]-acetamide] | 1 (≈ 2.02 µM) |
| CC(=O)NC[C@H]1CN(c2ccc(-c3ccc(CN4CC[C@@H](O)C4)cc3)c(F)c2)C(=O)O1 [Compound 1088, N-{3-[2-Fluoro-4′-(3-(R)-hydroxy-pyrrolidin-1-ylmethyl)-biphenyl-4-yl]-2-oxo-oxazolidin-5-(S)-ylmethyl}-acetamide] | 4 (≈ 9.36 µM) |
| CC(=O)NC[C@H]1CN(c2ccc(-c3ccc([C@H](CO)n4ccnn4)cc3)c(F)c2)C(=O)O1 [Compound 1073, N-{3-[2-Fluoro-4′-(2-hydroxy-1-(R)-[1,2,3]triazol-1-yl-ethyl)-biphenyl-4-yl]-2-oxo-oxazolidin-5-(S)-ylmethyl}-acetamide] | 1 (≈ 2.28 µM) |
| CC(=O)NC[C@H]1CN(c2ccc(-c3ccc(CNCc4[nH]ncc4Br)cc3)c(F)c2)C(=O)O1 [Compound 4169, N-[3-(4′-{[(4-Bromo-2H-pyrazol-3-ylmethyl)-amino]-methyl}-2-fluoro-biphenyl-4-yl)-2-oxo-oxazolidin-5-(S)-ylmethyl]-acetamide] | 2 (≈ 3.87 µM) |
| CC(=O)NC[C@H]1CN(c2ccc(-c3ccc(CNCc4ccoc4)cc3)c(F)c2)C(=O)O1 [Compound 4023, N-[3-(2-Fluoro-4′-{[(furan-3-ylmethyl)-amino]-methyl}-biphenyl-4-yl)-2-oxo-oxazolidin-5-(S)-ylmethyl]-acetamide] | 1 (≈ 2.29 µM) |
| CC(=O)NC[C@H]1CN(c2ccc(-c3ccc(CSc4nccs4)cc3)c(F)c2)C(=O)O1 [Compound 2030, N-{3-[2-Fluoro-4′-(thiazol-2-ylsulfanylmethyl)-biphenyl-4-yl]-2-oxo-oxazolidin-5-(S)-ylmethyl}-acetamide] | 1 (≈ 2.19 µM) |
| CC(=O)NC[C@H]1CN(c2ccc(-c3ccc(CNCc4ccc5ccccc5n4)cc3)c(F)c2)C(=O)O1 [Compound 4019, N-[3-(2-Fluoro-4′-{[(quinolin-2-ylmethyl)-amino]-methyl}-biphenyl-4-yl)-2-oxo-oxazolidin-5-(S)-ylmethyl]-acetamide] | 0.5 (≈ 1 µM) |
| CC(=O)NC[C@H]1CN(c2ccc(-c3ccc(C[S+]([O-])c4nc(C)cs4)cc3)c(F)c2)C(=O)O1 (stereo partly drawn) [Compound 2037, N-{3-[2-Fluoro-4′-(4-methyl-thiazole-2-sulfinylmethyl)-biphenyl-4-yl]-2-oxo-oxazolidin-5-(S)-ylmethyl}-acetamide] | 1 (≈ 2.05 µM) |
| CC(=O)NC[C@H]1CN(c2ccc(-c3ccc(CN(C)Cc4ccoc4)cc3)c(F)c2)C(=O)O1 [Compound 4061, N-(3-{2-Fluoro-4′-[(furan-3-ylmethyl-methyl-amino)-methyl]-biphenyl-4-yl}-2-oxo-oxazolidin-5-(S)-ylmethyl)-acetamide] | 4 (≈ 8.86 µM) |
| CC(=O)NC[C@H]1CN(c2ccc(-c3ccc(CNC(=O)c4cccn4C)cc3)c(F)c2)C(=O)O1 [Compound 4010, 1-Methyl-1H-pyrrole-2-carboxylic acid {4′-[5-(S)-(acetylamino-methyl)-2-oxo-oxazolidin-3-yl]-2′-fluoro-biphenyl-4-ylmethyl}-amide] | 1 (≈ 2.15 µM) |
| CC(=O)NC[C@H]1CN(c2ccc(-c3ccc(CNCc4ccco4)c(F)c3F)c(F)c2)C(=O)O1 [Compound 4088, N-[2-Oxo-3-(2,2′,3′-trifluoro-4′-{[(furan-2-ylmethyl)-amino]-methyl}-biphenyl-4-yl)-oxazolidin-5-(S)-ylmethyl]-acetamide] | 2 (≈ 4.22 µM) |
